Measurements from patent US12496460B2, “System and method for quantitative dosimetry of photodynamic therapy in skin” (Trustees of Dartmouth College, priority 2020, dated 2025).

Key:
[1] = tested on: PpIX accumulation in athymic nude mice; conditions: mouse, in vivo
Experimental: Example 1—Preclinical In-vivo Murine Measurements: The nude mouse model was used to examine the system's 100 ability to capture in-vivo production of PpIX. The measurements were performed on five athymic nude mice fed a low-chlorophyll diet to minimize tissue autofluorescence. For imaging, the mice were placed under anesthesia and onto a heated pad to regulate their body temperature; the temperature was monitored using an IR camera (TG165, FLIR Systems Inc.) and kept in the 32° C.-36° C. range. AMELUZ® (Biofontera Inc., Boston, MA), a 10% aminolevulinic acid hydrochloride gel, was topically applied to the backs of the mice as to contain an ALA-applied area and a control area within the field-of-view of the system 100. The mice were kept in a low-light environment to prevent photobleaching of the accumulated PpIX. Images of the mice were taken at 10-minute intervals for the first hour with subsequent images at two and three hours of incubation. The mice were kept under anesthesia during the first hour, placed back in the cage, and briefly placed back under anesthesia for imaging at two and three hours of incubation. The imaging parameters used for these measurements were iOS-generated images with ISO 400 and exposure set to 1/10th sec. The images were processed in ImageJ, where the red pixels were isolated for region-of-interest (ROI) pixel intensity calculation.
In this murine model, it was possible to quantitatively observe the PpIX accumulation in the ALA-applied area as early as 10 minutes with a clear visual accumulation in the 20-30 minute timeframe. In contrast, the control region was relatively flat for the first hour with a moderate increase in fluorescence observed at the two hour and three hour measurements as the mice begin systematic accumulation of the PpIX.

[2] = tested on: PpIX fluorescence at AK treatment sites; conditions: human, in vivo
Experimental: Example 2—Human Skin Test Measurement: In this human testing, the system's 100 performance was evaluated on three patients undergoing their standard clinical PDT treatment at the Dartmouth-Hitchcock Dermatology Department for treatment of AKs using Levulan® (Sun Pharma Industries Ltd., Mumbai, India), a 20% ALA solution [see FIG. 2A]. […] The standard procedure involves treatment of a site (e.g. face, scalp, arms, or legs) which is cleaned using ethanol and followed by non-occluded topical application of the ALA; the patient is then transferred to a low-light rest area for a 60-minute incubation period. […] Fluorescence images from a treatment site are gathered before the ALA is applied, at the 60-minute incubation, and post-PDT treatment [see FIG. 2B]. Discomfort levels experienced by the imaged patients were recorded during light irradiation via verbal rating of the pain. The goal of performing dosimeter imaging using the system 100 during treatment is to correlate the measured PpIX accumulation and PDT-induced photobleaching to patient outcomes and generate thresholds that can be used for individualized treatment guidance [see FIG. 2C]. […] Images were pre-processed using Adobe DNG Converter software and analyzed using MATLAB and ImageJ to extract the RAW pixel values. […]

time at which PpIX accumulation is quantitatively observed in the ALA-applied area ([1]; athymic nude): 10 min | timeframe of clear visual PpIX accumulation ([1]; athymic nude): 20 to 30 min | course of PpIX fluorescence over the three hours of incubation [1]: monotonic increase | average pixel value (PpIX fluorescence) at 60 min incubation [2]: 21.1±6.1
Compound: NCC(=O)CCC(=O)O [ALA, aminolevulinic acid]
